# Laboratory results reported in PubChem BioAssay AID1963435 (Molecular Pharmacology Branch, DTP, NCI, 2024).
# Values joined by “and” are separate entries in the source; they are usually repeats but may differ in a detail not shown here. Equal entries are not always repeated.
# Tested on: PANC-1 complex spheroid growth, percent test/control
# Assay: Anticancer human tumor PANC-1 cell line growth inhibition [Asc];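 further: spheroids exposed to agents for 7 days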;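 on viability, T/C: percent viability relative to DMSO vehicle wells taken as 100%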
# Settings: for viability, T/C: stronger effect = lower value
# Method in brief: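 Complex solid-tumor spheroids incorporating human endothelial and mesenchymal stem cells received single agents or combinations over half-log dilution ranges anchored to clinical Cmax.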
# [1] = curve of first compound, second compound 0.00316 µM
# [2] = curve of first compound, second compound 0.01 µM
# [3] = curve of first compound, second compound 0.0316 µM
# [4] = curve of first compound, second compound 0.1 µM
# [5] = curve of first compound, second compound 0.316 µM
# [6] = curve of first compound, second compound 1 µM
# [7] = second compound 0.00316 µM, first compound 0.0316 µM
# [8] = second compound 0.00316 µM, first compound 0.1 µM
# [9] = second compound 0.00316 µM, first compound 0.316 µM
# [10] = second compound 0.00316 µM, first compound 1 µM
# [11] = second compound 0.00316 µM, first compound 3.16 µM
# [12] = second compound 0.00316 µM, first compound 10 µM
# [13] = second compound 0.01 µM, first compound 0.0316 µM
# [14] = second compound 0.01 µM, first compound 0.1 µM
# [15] = second compound 0.01 µM, first compound 0.316 µM
# [16] = second compound 0.01 µM, first compound 1 µM
# [17] = second compound 0.01 µM, first compound 3.16 µM
# [18] = second compound 0.01 µM, first compound 10 µM
# [19] = second compound 0.0316 µM, first compound 0.0316 µM
# [20] = second compound 0.0316 µM, first compound 0.1 µM
# [21] = second compound 0.0316 µM, first compound 0.316 µM
# [22] = second compound 0.0316 µM, first compound 1 µM
# [23] = second compound 0.0316 µM, first compound 3.16 µM
# [24] = second compound 0.0316 µM, first compound 10 µM
# [25] = second compound 0.1 µM, first compound 0.0316 µM
# [26] = second compound 0.1 µM, first compound 0.1 µM
# [27] = second compound 0.1 µM, first compound 0.316 µM
# [28] = second compound 0.1 µM, first compound 1 µM
# [29] = second compound 0.1 µM, first compound 3.16 µM
# [30] = second compound 0.1 µM, first compound 10 µM
# [31] = second compound 0.316 µM, first compound 0.0316 µM
# [32] = second compound 0.316 µM, first compound 0.1 µM
# [33] = second compound 0.316 µM, first compound 0.316 µM
# [34] = second compound 0.316 µM, first compound 1 µM
# [35] = second compound 0.316 µM, first compound 3.16 µM
# [36] = second compound 0.316 µM, first compound 10 µM
# [37] = second compound 1 µM, first compound 0.0316 µM
# [38] = second compound 1 µM, first compound 0.1 µM
# [39] = second compound 1 µM, first compound 0.316 µM
# [40] = second compound 1 µM, first compound 1 µM
# [41] = second compound 1 µM, first compound 3.16 µM
# [42] = second compound 1 µM, first compound 10 µM
compound,measurement,setting,value
C#Cc1c(F)ccc2cc(O)cc(-c3ncc4c(N5CC6CCC(C5)N6)nc(OCC56CCCN5CC(F)C6)nc4c3F)c12 (stereo not drawn) + CNC(C)C(=O)NC1CN(S(=O)(=O)c2cccc(S(=O)(=O)N3CCC4CCC(C(=O)NC(c5ccccc5)c5ccccc5)N4C(=O)C(NC(=O)C(C)NC)C3)c2)CCC2CCC(C(=O)NC(c3ccccc3)c3ccccc3)N2C1=O,IC50,[1],> 10 µM
same,IC50,[2],> 10 µM
same,IC50,[3],> 10 µM
same,IC50,[4],> 10 µM
same,IC50,[5],> 10 µM
same,IC50,[6],> 10 µM
same,"viability, T/C",[7],93.3%
same,"viability, T/C",[8],85.7%
same,"viability, T/C",[9],88%
same,"viability, T/C",[10],85.6%
same,"viability, T/C",[11],91%
same,"viability, T/C",[12],78%
same,"viability, T/C",[13],91.6%
same,"viability, T/C",[14],81.9%
same,"viability, T/C",[15],89.2%
same,"viability, T/C",[16],76.4%
same,"viability, T/C",[17],86.5%
same,"viability, T/C",[18],78.7%
same,"viability, T/C",[19],88.9%
same,"viability, T/C",[20],77.8%
same,"viability, T/C",[21],76.6%
same,"viability, T/C",[22],82%
same,"viability, T/C",[23],79.7%
same,"viability, T/C",[24],70.1%
same,"viability, T/C",[25],90.8%
same,"viability, T/C",[26],85.2%
same,"viability, T/C",[27],85.6%
same,"viability, T/C",[28],73.7%
same,"viability, T/C",[29],78.8%
same,"viability, T/C",[30],75.4%
same,"viability, T/C",[31],83%
same,"viability, T/C",[32],81.8%
same,"viability, T/C",[33],77.1%
same,"viability, T/C",[34],76.4%
same,"viability, T/C",[35],79.6%
same,"viability, T/C",[36],70.3%
same,"viability, T/C",[37],90.1%
same,"viability, T/C",[38],82.2%
same,"viability, T/C",[39],77.1%
same,"viability, T/C",[40],80.4%
same,"viability, T/C",[41],77.8%
same,"viability, T/C",[42],69.2%
C=C(F)C(=O)N1CCN(c2nc(OCC3CCCN3C)nc3c2CCN(c2cccc4cccc(Cl)c24)C3)CC1CC#N (stereo not drawn) + CNC(C)C(=O)NC1CN(S(=O)(=O)c2cccc(S(=O)(=O)N3CCC4CCC(C(=O)NC(c5ccccc5)c5ccccc5)N4C(=O)C(NC(=O)C(C)NC)C3)c2)CCC2CCC(C(=O)NC(c3ccccc3)c3ccccc3)N2C1=O,IC50,[1],5.52 µM
same,IC50,[2],5.29 µM
same,IC50,[3],5.31 µM
same,IC50,[4],5.4 µM
same,IC50,[5],2.64 µM
same,IC50,[6],4.05 µM
same,"viability, T/C",[7],99.5%
same,"viability, T/C",[8],99.1%
same,"viability, T/C",[9],101%
same,"viability, T/C",[10],92.4%
same,"viability, T/C",[11],91.6%
same,"viability, T/C",[12],5.56%
same,"viability, T/C",[13],95.6%
same,"viability, T/C",[14],92.4%
same,"viability, T/C",[15],92.4%
same,"viability, T/C",[16],100%
same,"viability, T/C",[17],85.1%
same,"viability, T/C",[18],6.24%
same,"viability, T/C",[19],88.1%
same,"viability, T/C",[20],86.8%
same,"viability, T/C",[21],107%
same,"viability, T/C",[22],91.8%
same,"viability, T/C",[23],86.8%
same,"viability, T/C",[24],5.07%
same,"viability, T/C",[25],90.5%
same,"viability, T/C",[26],102%
same,"viability, T/C",[27],90.3%
same,"viability, T/C",[28],99.3%
same,"viability, T/C",[29],87.6%
same,"viability, T/C",[30],6.55%
same,"viability, T/C",[31],89.2%
same,"viability, T/C",[32],92.4%
same,"viability, T/C",[33],96.2%
same,"viability, T/C",[34],95.1%
same,"viability, T/C",[35],41.9%
same,"viability, T/C",[36],4.83%
same,"viability, T/C",[37],84.8%
same,"viability, T/C",[38],91.3%
same,"viability, T/C",[39],93.4%
same,"viability, T/C",[40],95.4%
same,"viability, T/C",[41],63.1%
same,"viability, T/C",[42],2.3%
CCN1C(C(=O)NC23CCC(C(=O)O)(CC2)CC3)C(c2cccc(Cl)c2F)C2(C(=O)Nc3cc(Cl)ccc32)C12CCCCC2 (stereo not drawn) + Cc1c(S(C)(=O)=O)c(-c2cc(F)cc(N3CCN(c4ccc(NS(=O)(=O)c5ccc(NC(CCN6CCC(C(=O)OCCCP(=O)(O)O)CC6)CSc6ccccc6)c(S(=O)(=O)C(F)(F)F)c5)cc4)CC3)c2)c(-c2ccc(Cl)cc2)n1C(C)C,IC50,[3],> 3 µM
same,IC50,[4],> 3 µM
same,IC50,[5],> 3 µM
same,IC50,[6],> 3 µM
same,IC50,"curve of first compound, second compound 3.16 µM",> 3 µM
same,IC50,"curve of first compound, second compound 10 µM",> 3 µM
same,"viability, T/C","second compound 0.0316 µM, first compound 0.00949 µM",99.1%
same,"viability, T/C","second compound 0.0316 µM, first compound 0.03 µM",103%
same,"viability, T/C","second compound 0.0316 µM, first compound 0.0949 µM",93.7%
same,"viability, T/C","second compound 0.0316 µM, first compound 0.3 µM",110%
same,"viability, T/C","second compound 0.0316 µM, first compound 0.949 µM",109%
same,"viability, T/C","second compound 0.0316 µM, first compound 3 µM",114%
same,"viability, T/C","second compound 0.1 µM, first compound 0.00949 µM",101%
same,"viability, T/C","second compound 0.1 µM, first compound 0.03 µM",108%
same,"viability, T/C","second compound 0.1 µM, first compound 0.0949 µM",106%
same,"viability, T/C","second compound 0.1 µM, first compound 0.3 µM",96.8%
same,"viability, T/C","second compound 0.1 µM, first compound 0.949 µM",124%
same,"viability, T/C","second compound 0.1 µM, first compound 3 µM",123%
same,"viability, T/C","second compound 0.316 µM, first compound 0.00949 µM",99.8%
same,"viability, T/C","second compound 0.316 µM, first compound 0.03 µM",96.3%
same,"viability, T/C","second compound 0.316 µM, first compound 0.0949 µM",105%
same,"viability, T/C","second compound 0.316 µM, first compound 0.3 µM",103%
same,"viability, T/C","second compound 0.316 µM, first compound 0.949 µM",117%
same,"viability, T/C","second compound 0.316 µM, first compound 3 µM",109%
same,"viability, T/C","second compound 1 µM, first compound 0.00949 µM",124%
same,"viability, T/C","second compound 1 µM, first compound 0.03 µM",107%
same,"viability, T/C","second compound 1 µM, first compound 0.0949 µM",106%
same,"viability, T/C","second compound 1 µM, first compound 0.3 µM",107%
same,"viability, T/C","second compound 1 µM, first compound 0.949 µM",118%
same,"viability, T/C","second compound 1 µM, first compound 3 µM",115%
same,"viability, T/C","second compound 3.16 µM, first compound 0.00949 µM",115%
same,"viability, T/C","second compound 3.16 µM, first compound 0.03 µM",102%
same,"viability, T/C","second compound 3.16 µM, first compound 0.0949 µM",111%
same,"viability, T/C","second compound 3.16 µM, first compound 0.3 µM",116%
same,"viability, T/C","second compound 3.16 µM, first compound 0.949 µM",118%
same,"viability, T/C","second compound 3.16 µM, first compound 3 µM",123%
same,"viability, T/C","second compound 10 µM, first compound 0.00949 µM",179%
same,"viability, T/C","second compound 10 µM, first compound 0.03 µM",189%
same,"viability, T/C","second compound 10 µM, first compound 0.0949 µM",184%
same,"viability, T/C","second compound 10 µM, first compound 0.3 µM",186%
same,"viability, T/C","second compound 10 µM, first compound 0.949 µM",172%
same,"viability, T/C","second compound 10 µM, first compound 3 µM",155%
C=C(F)C(=O)N1CCN(c2nc(OCC3CCCN3C)nc3c2CCN(c2cccc4cccc(Cl)c24)C3)CC1CC#N (stereo not drawn),"viability, T/C",compound 0.0316 µM,108% and 97% and 96.2%
same,"viability, T/C",compound 0.1 µM,105% and 86% and 95%
same,"viability, T/C",compound 0.316 µM,94.3% and 104% and 98%
same,"viability, T/C",compound 1 µM,101% and 96.9% and 96.6%
same,"viability, T/C",compound 3.16 µM,97.6% and 102% and 90.8%
same,"viability, T/C",compound 10 µM,29.9% and 33.2% and 31.5%
same,IC50,curve of compound,7.1 µM and 7.4 µM and 6.98 µM
